The values that follow come from publication PMC13085583 (Cell host & microbe, 2026).

This assay concerns CbCdnB. Particulars: 10 mM Tris-HCl pH 7.4, 25 mM KCl, 20 mM MgCl2, 1 mM MnCl2, 37 °C.

Molecules are shown by their SMILES. Read-outs that look alike come from different tables or passages of the source.

Sequence of CbCdnB (A0A0L9Y448 1-469): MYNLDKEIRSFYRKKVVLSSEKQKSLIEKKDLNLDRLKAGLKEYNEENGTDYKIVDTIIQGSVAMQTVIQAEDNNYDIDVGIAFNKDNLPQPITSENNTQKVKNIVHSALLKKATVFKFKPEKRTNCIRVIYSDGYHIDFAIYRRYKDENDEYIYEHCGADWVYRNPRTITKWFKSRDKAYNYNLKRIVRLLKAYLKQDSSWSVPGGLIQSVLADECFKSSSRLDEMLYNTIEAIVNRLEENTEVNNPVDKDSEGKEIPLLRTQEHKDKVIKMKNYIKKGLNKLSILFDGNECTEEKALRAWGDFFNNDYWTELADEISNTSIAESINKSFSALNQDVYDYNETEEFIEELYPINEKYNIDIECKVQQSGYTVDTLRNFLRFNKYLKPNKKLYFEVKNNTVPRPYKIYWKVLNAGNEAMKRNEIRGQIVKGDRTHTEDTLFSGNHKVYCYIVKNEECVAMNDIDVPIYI

`Nc1ncnc2c1ncn2[C@@H]1O[C@H](COP(=O)(O)OP(=O)(O)OP(=O)(O)O)[C@@H](O)[C@H]1O` [ATP]: the “ELISA of product 2′,3′-cGAMP” value (with GTP) was “enzyme reaction products produced when the indicated synthase is incubated with ATP and GTP”.

As for `Nc1nc2c(ncn2[C@@H]2O[C@H](COP(=O)(O)OP(=O)(O)OP(=O)(O)O)[C@@H](O)[C@H]2O)c(=O)[nH]1` [GTP], under “with ATP”, the “ELISA of product 2′,3′-cGAMP” value is “enzyme reaction products produced when the indicated synthase is incubated with ATP and GTP”.
